Measured values taken from BindingDB's records for patent US9187487 (Principia Biopharma, 2015).

Target: T1, Tyrosine-protein kinase JAK3 [781-1124] (Homo sapiens, UniProt P52333)
T1 construct: 781-1124
Assay: Phosphorylation Assay
Conditions: pH 7.5
Description: Phosphorylation of the appropriate peptide substrate (fluorescently labeled Srctide) by recombinant JAK3 (catalytic domain, aa 781-1124) was measured in the presence and absence of different concentrations of test compounds. Test compound, enzyme, fluorescently labeled substrate, and cofactors (ATP and Mg2+) were combined in a well of a microtiter plate and incubated for 2 hours at 25° C. The composition of the reaction buffer was 100 mM HEPES pH 7.5, 5 mM MgCl2, 0.01% Triton-X 100, 0.1% Bovine Serum Albumin, and 1% DMSO. Enzyme concentration in the final reaction mixture was 0.5 nM while peptide substrate was at 1 uM. ATP was used at 1xKm concentration corresponding to 2 uM. Serial dilutions (3-fold steps) of compounds were prepared in DMSO. At the end of the incubation, the reaction was stopped by the addition of 20 mM EDTA. Substrate and product (i.e. phosphorylated substrate) were separated electrophoretically and both were quantified by fluorescence intensity.

T1 sequence (P52333 781-1124): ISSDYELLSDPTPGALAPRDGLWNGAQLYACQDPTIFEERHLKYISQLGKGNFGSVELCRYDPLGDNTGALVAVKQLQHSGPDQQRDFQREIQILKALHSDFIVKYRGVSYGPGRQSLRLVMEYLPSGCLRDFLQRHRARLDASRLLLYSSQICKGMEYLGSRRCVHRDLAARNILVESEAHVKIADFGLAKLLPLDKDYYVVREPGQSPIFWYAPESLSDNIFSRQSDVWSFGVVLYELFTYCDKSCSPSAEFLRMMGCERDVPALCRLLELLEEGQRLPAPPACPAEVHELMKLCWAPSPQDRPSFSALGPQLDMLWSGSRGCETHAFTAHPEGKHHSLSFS

## CC(C)C(=O)c1c[nH]c2ncc(-c3cccc(C=C(C#N)C(=O)N(C)C)c3)nc12 [US9187487, 37]
  IC50: 190 nM

## CC(C)(C)C(=O)c1c[nH]c2ncc(Nc3ccc(C=C4SC(=O)NC4=O)cc3)nc12 [US9187487, 65]
  IC50: 4 nM
